The structures appear in SMILES notation. Active and inactive are the calls of the source. The rule behind the calls is not given here.

In series [1] the test system is HT-29. Description: Effect on ppGalNAcT3 expression level in human HT-29 cells at 40 uM incubated for 48 hrs by Q-PCR analysis. The format is ADME, cell-based. The settings on record: ht-29, 48 h.
Series [2] deals with HT-29. Description: Effect on ppGalNAcT14 expression level in human HT-29 cells at 40 uM incubated for 48 hrs by Q-PCR analysis. The series is classed as ADME, cell-based. The settings on record: ht-29, 48 h.
In series [3] the test system is HT-29. Description: Effect on ppGalNAcT13 expression level in human HT-29 cells at 40 uM incubated for 48 hrs by Q-PCR analysis. The format is ADME, cell-based. The settings on record: ht-29, 48 h.
The target in series [4] is T1, Polypeptide N-acetylgalactosaminyltransferase 6 (Homo sapiens, UniProt Q8NCL4).
T1 sequence (Q8NCL4 whole entry): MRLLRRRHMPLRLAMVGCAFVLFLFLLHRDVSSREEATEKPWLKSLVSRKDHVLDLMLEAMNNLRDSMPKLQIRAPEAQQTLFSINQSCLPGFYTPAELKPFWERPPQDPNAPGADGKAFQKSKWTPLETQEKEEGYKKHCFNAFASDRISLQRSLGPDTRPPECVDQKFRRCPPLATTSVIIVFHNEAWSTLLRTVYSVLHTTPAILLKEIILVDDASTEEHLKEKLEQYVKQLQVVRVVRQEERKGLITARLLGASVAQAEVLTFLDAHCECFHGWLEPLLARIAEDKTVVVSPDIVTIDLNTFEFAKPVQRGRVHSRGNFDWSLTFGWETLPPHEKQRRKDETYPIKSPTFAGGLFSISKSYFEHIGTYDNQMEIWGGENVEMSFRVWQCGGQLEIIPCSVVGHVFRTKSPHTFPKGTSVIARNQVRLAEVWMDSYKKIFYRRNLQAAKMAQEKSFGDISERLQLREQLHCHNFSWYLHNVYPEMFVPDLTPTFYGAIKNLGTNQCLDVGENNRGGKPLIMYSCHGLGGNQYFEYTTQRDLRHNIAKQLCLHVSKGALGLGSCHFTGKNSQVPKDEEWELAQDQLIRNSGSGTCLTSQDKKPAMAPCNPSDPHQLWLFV
Description: Inhibition of catalytic activity of ppGalNAcT6 (unknown origin) using EA2 peptide as substrate incubated for 30 mins by HPLC-based enzyme assay.

Series [5] deals with HT-29. Description: Effect on ppGalNAcT7 expression level in human HT-29 cells at 40 uM incubated for 48 hrs by Q-PCR analysis. The series is classed as ADME, cell-based. The settings on record: ht-29, 48 h.
In series [6] the test system is HT-29. Briefly: Effect on ppGalNAcT1 expression level in human HT-29 cells at 40 uM incubated for 48 hrs by Q-PCR analysis. The series is classed as ADME, cell-based. As to conditions: ht-29, 48 h.
For series [7], the target named is T2, Polypeptide N-acetylgalactosaminyltransferase 2 (Homo sapiens, UniProt Q10471). Description: Inhibition of ppGalNAcT2 in human HCT116 cells assessed as reduction in O-GalNAc glycosylation by measuring VVA lectin expression at 40 uM incubated for 48 hrs by Western blot analysis. The series is classed as cell-based. (Immunoblotting shows a protein as a band on a membrane.)
T2 sequence (Q10471 whole entry): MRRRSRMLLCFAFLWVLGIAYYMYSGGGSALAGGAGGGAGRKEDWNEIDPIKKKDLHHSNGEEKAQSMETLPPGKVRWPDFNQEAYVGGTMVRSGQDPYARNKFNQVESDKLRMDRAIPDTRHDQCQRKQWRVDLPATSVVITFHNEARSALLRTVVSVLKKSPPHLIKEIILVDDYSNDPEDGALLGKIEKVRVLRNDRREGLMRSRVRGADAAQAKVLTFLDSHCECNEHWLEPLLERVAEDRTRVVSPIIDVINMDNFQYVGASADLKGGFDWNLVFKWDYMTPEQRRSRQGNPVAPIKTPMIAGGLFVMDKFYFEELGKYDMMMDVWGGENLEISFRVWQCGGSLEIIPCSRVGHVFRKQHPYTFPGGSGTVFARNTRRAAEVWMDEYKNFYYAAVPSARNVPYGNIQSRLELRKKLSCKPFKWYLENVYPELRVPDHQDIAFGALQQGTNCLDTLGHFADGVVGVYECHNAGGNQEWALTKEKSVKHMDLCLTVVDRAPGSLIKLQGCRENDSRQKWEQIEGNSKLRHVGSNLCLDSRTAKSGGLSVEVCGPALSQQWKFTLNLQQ

The test system of series [8] is HT-29. Description: Effect on ppGalNAcT4 expression level in human HT-29 cells at 40 uM incubated for 48 hrs by Q-PCR analysis. The format is ADME, cell-based. The settings on record: ht-29, 48 h.
For series [9], the target named is T3, Polypeptide N-acetylgalactosaminyltransferase 1 (Homo sapiens, UniProt Q10472).
T3 sequence (Q10472 whole entry): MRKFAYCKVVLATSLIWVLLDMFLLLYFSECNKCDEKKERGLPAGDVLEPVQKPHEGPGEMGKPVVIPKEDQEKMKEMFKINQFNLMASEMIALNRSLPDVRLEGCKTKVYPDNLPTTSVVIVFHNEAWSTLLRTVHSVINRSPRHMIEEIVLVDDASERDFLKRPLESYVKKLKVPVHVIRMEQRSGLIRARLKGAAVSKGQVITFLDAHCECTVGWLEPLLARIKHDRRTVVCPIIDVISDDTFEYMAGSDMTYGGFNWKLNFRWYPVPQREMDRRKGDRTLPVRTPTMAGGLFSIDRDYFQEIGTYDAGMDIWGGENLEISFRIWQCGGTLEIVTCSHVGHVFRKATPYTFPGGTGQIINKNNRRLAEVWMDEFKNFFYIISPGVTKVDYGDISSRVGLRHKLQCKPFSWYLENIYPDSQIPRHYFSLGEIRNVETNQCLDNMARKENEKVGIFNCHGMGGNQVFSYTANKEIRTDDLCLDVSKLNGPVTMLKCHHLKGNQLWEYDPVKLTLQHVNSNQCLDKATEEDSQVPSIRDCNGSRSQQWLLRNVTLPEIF
Description: Inhibition of catalytic activity of ppGalNAcT1 (unknown origin) using EA2 peptide as substrate incubated for 30 mins by HPLC-based enzyme assay.

In series [10] the target is T4, Polypeptide N-acetylgalactosaminyltransferase 13 (Homo sapiens, UniProt Q8IUC8).
T4 sequence (Q8IUC8 whole entry): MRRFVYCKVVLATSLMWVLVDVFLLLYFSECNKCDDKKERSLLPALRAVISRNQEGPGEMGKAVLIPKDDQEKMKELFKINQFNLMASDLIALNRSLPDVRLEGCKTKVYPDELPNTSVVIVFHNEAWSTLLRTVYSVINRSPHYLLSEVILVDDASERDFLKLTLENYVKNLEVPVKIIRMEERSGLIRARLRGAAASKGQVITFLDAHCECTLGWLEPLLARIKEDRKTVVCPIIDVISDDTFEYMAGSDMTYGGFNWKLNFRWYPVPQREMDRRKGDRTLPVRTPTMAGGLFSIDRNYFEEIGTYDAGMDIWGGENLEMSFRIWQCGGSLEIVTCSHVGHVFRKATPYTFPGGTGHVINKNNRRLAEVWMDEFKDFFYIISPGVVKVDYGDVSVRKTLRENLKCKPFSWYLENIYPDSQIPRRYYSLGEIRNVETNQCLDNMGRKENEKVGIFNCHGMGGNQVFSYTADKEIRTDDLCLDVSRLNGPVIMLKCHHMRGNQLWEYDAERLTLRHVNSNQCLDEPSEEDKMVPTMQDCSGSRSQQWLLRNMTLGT
Briefly: Inhibition of catalytic activity of ppGalNAcT13 (unknown origin) using EA2 peptide as substrate incubated for 30 mins by HPLC-based enzyme assay.

Series [11] concerns the target T2, Polypeptide N-acetylgalactosaminyltransferase 2. Briefly: Inhibition of catalytic activity of human recombinant FLAG-tagged ppGalNAcT2 expressed in HEK293T cells and using 5-FAM labelled-EA2 peptide as substrate incubated for 30 mins by HPLC-based enzyme assay.
Series [12] deals with Polypeptide N-acetylgalactosaminyltransferase 14 (Homo sapiens, UniProt Q96FL9). Description: Inhibition of catalytic activity of ppGalNAcT14 (unknown origin) using EA2 peptide as substrate incubated for 30 mins by HPLC-based enzyme assay.
Chain of Polypeptide N-acetylgalactosaminyltransferase 14 (Q96FL9 whole entry): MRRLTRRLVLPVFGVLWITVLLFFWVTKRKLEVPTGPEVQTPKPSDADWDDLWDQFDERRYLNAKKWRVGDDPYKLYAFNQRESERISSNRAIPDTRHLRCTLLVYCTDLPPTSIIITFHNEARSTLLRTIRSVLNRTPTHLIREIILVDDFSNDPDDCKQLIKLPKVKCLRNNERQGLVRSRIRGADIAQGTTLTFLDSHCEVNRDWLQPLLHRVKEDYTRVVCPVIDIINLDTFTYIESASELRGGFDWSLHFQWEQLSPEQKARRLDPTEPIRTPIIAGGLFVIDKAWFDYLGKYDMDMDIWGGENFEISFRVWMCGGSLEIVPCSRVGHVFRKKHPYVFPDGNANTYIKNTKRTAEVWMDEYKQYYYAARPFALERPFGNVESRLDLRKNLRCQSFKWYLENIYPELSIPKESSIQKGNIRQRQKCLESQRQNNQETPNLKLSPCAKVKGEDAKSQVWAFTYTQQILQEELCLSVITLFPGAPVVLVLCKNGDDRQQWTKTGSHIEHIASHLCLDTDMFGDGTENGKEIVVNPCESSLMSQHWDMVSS
For series [13], the target named is T2, Polypeptide N-acetylgalactosaminyltransferase 2. Description: Inhibition of ppGalNAcT2 in human SW480 cells assessed as reduction in O-GalNAc glycosylation by measuring VVA lectin expression at 40 uM incubated for 48 hrs by Western blot analysis. The format is cell-based.
The target is the same in series [14]. Briefly: Competitive inhibition of human recombinant FLAG-tagged ppGalNAcT2 expressed in HEK293 cells using EA2 peptide as substrate by HPLC-based enzyme assay.
The test system of series [15] is HT-29. Description: Effect on ppGalNAcT15 expression level in human HT-29 cells at 40 uM incubated for 48 hrs by Q-PCR analysis. The series is classed as ADME, cell-based. The settings on record: ht-29, 48 h.
Series [16] deals with T2, Polypeptide N-acetylgalactosaminyltransferase 2. Description: Binding affinity of human recombinant FLAG-tagged ppGalNAcT2 expressed in HEK293 cells assessed as dissociation constant by SPR analysis. (Surface plasmon resonance follows binding to a sensor surface in real time, without labels.)
Series [17] has the same target. Briefly: Binding affinity of human recombinant FLAG-tagged ppGalNAcT2 expressed in HEK293 cells assessed as dissociation rate by SPR analysis.

Usually IC50 stands for the midpoint of a concentration-inhibition curve. As a reminder, the Ki is the equilibrium dissociation constant of an inhibitor or competing ligand from its target. By Kd is commonly meant the equilibrium constant for the complex coming apart. Regarding `O=c1oc2c(O)c(O)ccc2c2cc(O)c(O)cc12`, the Activity entry with HT-29 [1], in the series with HT-29 [2], in the series with HT-29 [3], in the series with HT-29 [5], in the series with HT-29 [6] and with HT-29 [8] was “Non-Toxic” throughout. Further, in the series on HT-29 [15], the Activity entry was “Non-Toxic”. The IC50 in series [4] worked out at 1830 nM; in [9], 2460 nM; in [10] it was 13800 nM; in [11], 760 nM; in series [12] it was 460 nM. Further, the inhibition result in [7] and in series [13] was “Active” each time. Moreover, the Ki in [14] came out at 1070 nM. For the same molecule, the Kd in series [16] is 294 nM. In addition, the koff in [17] turned out to be 1.04 ×10⁻³ /s.
